According to patent US6277886A (priority 1996, dated 2001):
Read-outs that look alike come from different tables or passages of the source.

System: WKY rats
Conditions: for Change in HR / Change in MBAP: 45-60 min
Method: A chronic indwelling catheter was implanted in the caudal artery under light anesthesia with averteen. The animals were allowed to recover and were tested 24 hours after implantation. The cathetar was connected to a Statham pressure transducer and blood pressure was recorded on a Grass multichannel Polygraph. During this period, the rat was kept in its home cage in order to minimize handling and undue manipulations known to affect blood pressure.
Two strains of rats were used: WKY rats and matching SHR (Spontaneously Hypertensive Rats) rats. WKY rats were from a local strain, weighing about 250 g each.
Blood pressure and heart rate were then monitored for the duration of 45-60 minutes.

## C#CCN[C@H]1CCc2ccccc21 [S(-)PAI, S-(-)-N-propargyl-1-aminoindan]
Acute oral, in words
  blood pressure and heart rate: no effect on either parameter in either strain of rats
Dose 5, oral
  Change in HR: 0 beats/min
  Change in MBAP: 0 mmHg
Dose 10, oral
  Change in HR: 0 beats/min
  Change in MBAP: 0 mmHg
Dose 20, oral
  Change in HR: 0 beats/min
